Laboratory results reported in patent US20060286561A1, “PROPARGYLETHOXYAMINO NUCLEOTIDES” (Applera Corporation; Applied Biosystems Group, priority 1996, published 2006).

Tests used:
Type in all cases: biochemical
[1] = target: T1, AmpliTaq DNA Polymerase, FS (Thermus aquaticus, UniProt P19821, F667Y/G46D); assay: Terminator Titration Assay (dye-terminator cycle sequencing reaction); details: for Relative Molar Excess Terminator Required: to form a full sequencing ladder
T1 construct: purchased PE Applied Biosystems p/n 402117
Excerpt: The Terminator Titration Assay was used to determine the minimum amount of dye terminator required to create a full sequencing ladder, i.e., a sequencing ladder including all fragments terminating in a particular base having a length of between about 20 to about 600 nucleotides. The key components of the assay were (i) a primer labeled with a first dye, and (i) a terminator labeled with a second dye spectrally resolvable from the first dye. In the assay, when an insufficient concentration of dye terminator was added to the sequencing reaction, no dideoxy-terminated fragments were formed, and all that was seen on the sequencing gel were products formed by “false stops” that were labeled with the first dye only. As used herein the term “false stops” refer to primer extension products not terminating in a dideoxy terminator, such products probably being formed when the polymerase enzyme spontaneously disengages with the template strand. When too much terminator was used, only short termination products were formed, i.e., less than about 50 nucleotides in length, such products including both the first and second dyes. When the proper amount of terminator was used, a full sequencing ladder was produced, each fragment of the ladder being labeled with both the first and second dyes.
The dye-terminator reactions were performed using AmpliTaq DNA Polymerase, FS following protocols provided in the ABI PRISM™ Dye Terminator Cycle Sequencing Core Kit Manual (PE Applied Biosystems p/n 402116). (The FS enzyme is a recombinant Thermus aquaticus DNA polymerase having two point mutations--G46D and F667Y). All reagents except the dNTP mix, dye labeled primers, and dye-labeled terminators were from an ABI PRISM™ Dye Terminator Core Kit (PE Applied Biosystems p/n 402117). The dNTP mix consisted of 2 mM each of dATP, dCTP, dGTP and dTTP. A premix of reaction components was prepared as shown in the following table wherein all quantities are given on a per reaction basis:
Reactions were assembled in 0.5 ml tubes adapted for the Perkin-Elmer 480 DNA Thermal Cycler (PE Applied Biosystems p/n N801-100). Reaction volumes were 20 μL, including 15 μL, of the above reaction premix, a variable amount of dye labeled terminator, and a sufficient volume of water to bring the total reaction volume up to 20 μL. From 1 to 1000 pmol of the dye terminator was added to each reaction. 30 μL of mineral oil was added to the top of each reaction to prevent evaporation. Reactions were thermocycled as follows: 96° C. for 30 sec, 50° C. for 15 sec, and 60° C. for 4 min, for 25 cycles; followed by a 4° C. hold cycle.
All reactions were purified by spin-column purification on Centri-Sep spin columns according to manufacturer's instructions (Princeton Separations p/n CS-901). Gel material in the column was hydrated with 0.8 mL deionized water for at least 30 minutes at room temperature. After the column was hydrated and it was determined that no bubbles were trapped in the gel material, the upper and lower end caps of the column were removed, and the column was allowed to drain by gravity. The column was then inserted into the wash tubes provided in the kit and centrifuged in a variable speed microcentrifuge at 1300×g for 2 minutes, removed from the wash tube, and inserted into a sample collection tube. The reaction mixture was carefully removed from under the oil and loaded onto the gel material. Columns were centrifuged in a variable speed microcentrifuge at 1300×g for 2 minutes. Eluted samples were then dried in a vacuum centrifuge.
Prior to loading onto a sequencing gel, the dried samples were resuspended in 25 μL of Template Suppression Reagent (PE Applied Biosystems p/n 401674), vortexed, heated to 95° C. for 2 minutes, cooled on ice, vortexed again, and centrifuged (13,000×g). 10 μL of the resuspended sample was aliquoted into sample vials (PE Applied Biosystems p/n 401957) adapted for the PE ABI PRISM™ 310 Genetic Analyzer (PE Applied Biosystems p/n 310-00-100/120). […]

[2] = target: AmpliTaq FS Polymerase (mutant form of Taq DNA polymerase) (Thermus aquaticus, UniProt P19821, F667Y/G46D); assay: Single-Nucleotide Incorporation Assay for relative enzyme selectivity; details: for ddCTP/(Dye)-ddCTP (ratio of incorporation rates, preference for unlabeled ddCTP): ddCTP and dye-ddCTP each 200 μM, 8 nM enzyme, 60° C., corrected for energy transfer
Excerpt: In the assay, an unlabeled terminator and its cognate dye-labeled terminator are present in equal concentrations and allowed to compete for the same polymerase-substrate binding site under enzyme limited (steady-state) conditions.
With reference to FIG. 3, the components of the assay include a 36 nucleotide template (5); a 25 nucleotide primer (10) having a sequence complementary to the template and a first fluorescent label at the 5′-end (15); an unlabeled terminator (20); a dye-labeled terminator (25) having a second fluorescent label attached thereto (30) which is spectrally resolvable from the first fluorescent label; and a polymerase enzyme. In the present example, the unlabeled terminator was 2′,3′-ddCTP and the dye-labeled terminator was 6-(FAM)-ddCTP where different linker arms were used to attach the dye to the nucleotide. The template DNA contained a single G (35) at the template position following the end of the primer.
Products (40) and (45) were detected by resolving them electrophoretically and detecting the resulting bands using an ABI PRISM™ 373 DNA Sequencer (PE Applied Biosystems). A typical banding pattern consisted of a 25-mer band corresponding to the labeled primer (10), a 26-mer band corresponding to the product (40) and an “apparent 27-mer” which corresponded to product (45). The apparent extra base seen in product (45) is a result of the effect of the dye-labeled terminator on the electrophoretic mobility of the fragment. By taking samples from a reaction mixture and measuring the relative amounts of DNA in the 25-mer, 26-mer, and apparent 27-mer bands as a function of time, it was possible to measure the relative incorporation rates of the unlabeled and dye-labeled terminators in the reaction. […] In this manner, it was possible to measure the effect of linker structure on dye-terminator incorporation.
For the case of product (45), it is necessary to correct the fluorescence signal for fluorescence energy transfer which takes place between the first fluorescent label (15) located at the 5′-end of product (45), TAMRA in this example, and the second fluorescent label (30) located on the terminator positioned at the 3′-end of product (45), FAM in this example. Under the conditions used for detection, the presence of the 3′-FAM label serves to enhance the signal resulting from the TAMRA label. The energy-transfer correction is accomplished by synthesizing a doubly labeled internal standard molecule having the same structure as product (45), preparing a control sample containing equal moles of the 5′-TAMRA labeled primer (10) and the doubly labeled internal standard molecule, and running the control sample in a control lane on the same gel as assay products (40) and (45). Any difference in TAMRA fluorescence between the primer (10) and the doubly labeled internal standard is a quantitative measure of the extent of energy transfer between the dye moieties in the assay product (45). […] This measurement was used to correct the TAMRA fluorescence from the product (45) in each of the test sample lanes.
(The numbers in parenthesis next to certain components refer to elements in FIG. 3.)
The assay reactions were prepared as follows. Two 2×-concentrated “Half Reaction Mixtures” were prepared and held on ice. A first solution, the “2× Enz·DNA” mixture, comprised […] template/primer DNA and […] AmpliTaq FS in 80 mM TRIS buffer. A second solution, the “2× Mg·Nuc” mixture, comprised 80 mM TRIS buffer plus 4.8 mM MgCl2 and each of the nucleotides at 400 μM. A “Zero Time Control” sample was prepared by adding 1 μl of the 2× Enz-DNA mixture to 25 μl of “STOP Solution” (0.5 M EDTA, […]), and, after mixing, adding 1 μl of the 2× Mg·Nuc mixture. The Zero Time Control sample was held on ice until the remainder of the timed samples were also collected for further processing. […]

[3] = target: T1, AmpliTaq DNA Polymerase, FS; assay: Terminator Titration Assay (dye-terminator cycle sequencing reaction); details: for mean peak height / relative error of peak height (standard deviation / mean): FIG. 2, at optimal terminator concentration; for relative error of peak height (standard deviation / mean): lower = more even peak heights; for optimal concentration of terminator: FIG. 2, sequencing pattern comparison
[4] = C-terminator linked to 6-FAM dye, unlabeled dideoxy terminator = 1
[5] = C-terminator, various combinations of dyes and linkers, unlabeled terminator = 1

T1 sequence (P19821 whole entry G46D/F667Y): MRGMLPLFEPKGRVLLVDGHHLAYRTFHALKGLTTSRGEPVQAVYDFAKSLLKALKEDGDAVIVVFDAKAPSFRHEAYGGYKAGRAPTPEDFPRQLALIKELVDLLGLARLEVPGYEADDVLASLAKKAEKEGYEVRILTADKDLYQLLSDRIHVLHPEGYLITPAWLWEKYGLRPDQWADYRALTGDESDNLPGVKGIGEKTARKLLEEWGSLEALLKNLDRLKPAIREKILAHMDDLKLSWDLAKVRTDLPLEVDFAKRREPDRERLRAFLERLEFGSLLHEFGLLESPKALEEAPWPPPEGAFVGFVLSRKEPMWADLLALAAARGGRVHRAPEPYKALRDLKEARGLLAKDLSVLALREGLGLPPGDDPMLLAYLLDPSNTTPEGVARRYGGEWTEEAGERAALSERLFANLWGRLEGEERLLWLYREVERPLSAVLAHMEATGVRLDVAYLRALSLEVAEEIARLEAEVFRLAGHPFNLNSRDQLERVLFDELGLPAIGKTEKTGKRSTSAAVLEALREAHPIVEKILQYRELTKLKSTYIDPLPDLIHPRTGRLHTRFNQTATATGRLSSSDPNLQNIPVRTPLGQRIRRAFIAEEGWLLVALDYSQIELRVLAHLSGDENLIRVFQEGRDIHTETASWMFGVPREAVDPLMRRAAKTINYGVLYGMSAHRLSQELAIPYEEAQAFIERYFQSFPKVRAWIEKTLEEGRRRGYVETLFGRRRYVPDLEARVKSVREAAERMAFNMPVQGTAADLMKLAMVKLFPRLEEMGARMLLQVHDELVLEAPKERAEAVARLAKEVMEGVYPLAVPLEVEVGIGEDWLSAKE
Sequence of AmpliTaq FS Polymerase (mutant form of Taq DNA polymerase) (P19821 whole entry G46D/F667Y): as above

Compound: Nc1nc(=O)n(C2CCC(COP(=O)(O)OP(=O)(O)OP(=O)(O)O)O2)cc1C#CCOCCNC(=O)c1ccc2c(c1)C(=O)OC21c2ccc(O)cc2Oc2cc(O)ccc21 (stereo not shown) [(6-FAM)-propargyl-1-ethoxyamido-C]
- reduced molar excess as compared with terminators employing the propargylamido linker ([1]; C-terminator): six-fold
- reduced molar excess as compared with terminators employing a propargyl-2-ethoxyamido linker ([1]; C-terminator linked to 6-FAM): five-fold
- Relative Molar Excess Terminator Required [1, 4]: 9
- Relative Molar Excess Terminator Required [1, 5]: 9
- ddCTP/(Dye)-ddCTP (ratio of incorporation rates, preference for unlabeled ddCTP) [2]: 19×
- ddCTP/(Dye)-ddCTP (ratio of incorporation rates, preference for unlabeled ddCTP) ([2]; listed as FAM-ddCTP (propargyl-1-ethoxyamido linker)): 19 ×
- mean peak height [3]: 504
- relative error of peak height (standard deviation / mean) [3]: 0.436
- optimal concentration of terminator [3]: 50 pmol

Compound: Nc1nc(=O)n(C2CCC(COP(=O)(O)OP(=O)(O)OP(=O)(O)O)O2)cc1C#CCOCCOCCNC(=O)c1ccc2c(c1)C(=O)OC21c2ccc(O)cc2Oc2cc(O)ccc21 (stereo not shown) [(6-FAM)-propargyl-2-ethoxyamido-C]
- Relative Molar Excess Terminator Required [1, 4]: 45
- increase of bias against dye-ddCTP versus propargylamido linker ([2]; FAM-ddCTP, from 65× to 110×): about 2 fold
- ddCTP/(Dye)-ddCTP (ratio of incorporation rates, preference for unlabeled ddCTP) [2]: 110×
- ddCTP/(Dye)-ddCTP (ratio of incorporation rates, preference for unlabeled ddCTP) ([2]; listed as FAM-ddCTP (propargyl-2-ethoxyamido linker)): 110 ×

Compound: Nc1nc(=O)n(C2CCC(COP(=O)(O)OP(=O)(O)OP(=O)(O)O)O2)cc1C#CCNC(=O)c1ccc2c(c1)C(=O)OC21c2ccc(O)cc2Oc2cc(O)ccc21 (stereo not shown) [(6-FAM)-propargylamido-C, reference compound]
- Relative Molar Excess Terminator Required [1, 4]: 55
- Relative Molar Excess Terminator Required [1, 5]: 55
- ddCTP/(Dye)-ddCTP (ratio of incorporation rates, preference for unlabeled ddCTP) [2]: 65×
- ddCTP/(Dye)-ddCTP (ratio of incorporation rates, preference for unlabeled ddCTP) ([2]; listed as FAM-ddCTP (propargylamido linker)): 65 ×
- mean peak height [3]: 1800
- relative error of peak height (standard deviation / mean) [3]: 0.533
- optimal concentration of terminator [3]: 250 pmol

Compound: Nc1ccn([C@H]2CC[C@@H](COP(=O)(O)OP(=O)(O)OP(=O)(O)O)O2)c(=O)n1 [Unlabeled terminator, 2′,3′-ddCTP, reference compound]
- Relative Molar Excess Terminator Required [1, 4]: 1
- Relative Molar Excess Terminator Required [1, 5]: 1
